From patent US20260048047A1, “SMALL-MOLECULE ACTIVATORS OF MYCOBACTERIUM TUBERCULOSIS ADENYLYL CYCLASE” (priority 2022, published 2026) come the findings set out here.

One experiment deals with M. tuberculosis. Briefly: Extracellular activity against M. tuberculosis in cholesterol media (Alamar Blue reduction assay). In kind it is cell-based, Mycobacterium tuberculosis. (In general: Alamar Blue is a resazurin reagent that responds to reducing activity.)
A further experiment has as its system Rv1625c. In kind it is cell-based, Mycobacterium tuberculosis.

As for `Cn1ncnc1CC(=O)N1CCC(c2nc(-c3ccc(Cl)c(Cl)c3)no2)CC1` [mCLB073, 1-(4-(3-(3,4-dichlorophenyl)-1,2,4-oxadiazol-5-yl)-1-piperidinyl)-2-(2-methyl-2H-1,2,4-triazol-3-yl)-1-ethanone], the “Inhibition of ΔRv1625c strain in cholesterol media” value with M. tuberculosis is “refractory”.
Take `Cc1nonc1CC(=O)N1CCC(n2nnc(-c3ccc(F)cc3)n2)CC1` [Compound V-59, 1-(4-(5-(4-fluorophenyl)-2H-tetrazol-2-yl)piperidin-1-yl)-2-(4-methyl-1,2,5-oxadiazol-3-yl)ethan-1-one]: in the experiment on Rv1625c, the “cAMP induction in ΔRv1625c mutant” value is recorded as “did not affect”. Also, the “Inhibition of ΔRv1625c strain in cholesterol media” value in the experiment on M. tuberculosis is reported as “refractory”. In addition, the “Fold greater susceptibility of rv1625c overexpression strain (2×rv1625c) than WT” value with M. tuberculosis (2×rv1625c vs WT, 7H12+cholesterol) is approximately 15 fold.
